Test results published in article PMC6522912, “Evaluation of the published kinase inhibitor set to identify multiple inhibitors of bacterial ATP-dependent mur ligases” (Journal of Enzyme Inhibition and Medicinal Chemistry, 2019).
Like-named read-outs stand apart in the source and are kept apart here.

Legend:
E. coli MurC = E. coli MurC (Escherichia coli, UniProt P17952); experiment: Malachite green inhibition assay, MurC; assay type: biochemical; settings: 0.25 h
Method: (§1) Inhibition of the Mur ligases was determined using the malachite green assay, with slight modifications.
(§2) In all cases, the final concentration of DMSO was 5% (v/v). After incubation for 15 min at 37 °C, the enzyme reaction was terminated by addition of 100 µM Biomol green reagent, and the absorbance was measured at 650 nm after 5 min. All of the experiments were run in duplicate. Residual activities were calculated with respect to control assays without the tested compounds, but with the 5% DMSO carrier.
(§3) The published kinase inhibitor set compounds were evaluated for inhibition of MurC, D and F ligases from E. coli using the Malachite green assay, which detects orthophosphate generated during enzymatic reactions. To avoid non-specific inhibition due to aggregate formation, all of the compounds were tested in the presence of detergent (0.005% Triton-X114). The data are presented as the residual activities of these Mur ligases in the presence of 100 µM of each test compound (Supporting Information Table S1). […] Additionally, regarding the data of profiled compounds in large panels of human kinase assays[41]

E. coli MurF = E. coli MurF (Escherichia coli, UniProt P11880); experiment: biochemical; settings: 0.25 h, Table S1, PKIS screening; read-out: RA [%] at 100 µM MurF
E. coli MurF, sequence (P11880 whole entry): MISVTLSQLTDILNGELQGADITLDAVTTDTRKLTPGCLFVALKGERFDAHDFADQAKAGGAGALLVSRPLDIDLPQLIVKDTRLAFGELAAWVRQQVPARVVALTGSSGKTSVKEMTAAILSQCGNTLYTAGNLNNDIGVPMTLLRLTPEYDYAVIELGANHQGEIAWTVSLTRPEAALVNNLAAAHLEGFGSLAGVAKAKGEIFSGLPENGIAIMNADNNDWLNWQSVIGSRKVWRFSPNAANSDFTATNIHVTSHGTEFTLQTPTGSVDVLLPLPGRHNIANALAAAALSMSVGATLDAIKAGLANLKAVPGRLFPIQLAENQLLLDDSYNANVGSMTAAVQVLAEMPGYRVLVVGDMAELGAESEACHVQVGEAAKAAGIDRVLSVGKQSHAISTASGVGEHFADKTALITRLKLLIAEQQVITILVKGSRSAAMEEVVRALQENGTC
Method: as §1, §2, §3

E. coli MurD = E. coli MurD (Escherichia coli, UniProt P14900); experiment: biochemical; settings: for remaining activity at 100 µM: 0.25 h, Table S1, PKIS screening, read-out: RA [%] at 100 µM MurD
E. coli MurD, sequence (P14900 whole entry): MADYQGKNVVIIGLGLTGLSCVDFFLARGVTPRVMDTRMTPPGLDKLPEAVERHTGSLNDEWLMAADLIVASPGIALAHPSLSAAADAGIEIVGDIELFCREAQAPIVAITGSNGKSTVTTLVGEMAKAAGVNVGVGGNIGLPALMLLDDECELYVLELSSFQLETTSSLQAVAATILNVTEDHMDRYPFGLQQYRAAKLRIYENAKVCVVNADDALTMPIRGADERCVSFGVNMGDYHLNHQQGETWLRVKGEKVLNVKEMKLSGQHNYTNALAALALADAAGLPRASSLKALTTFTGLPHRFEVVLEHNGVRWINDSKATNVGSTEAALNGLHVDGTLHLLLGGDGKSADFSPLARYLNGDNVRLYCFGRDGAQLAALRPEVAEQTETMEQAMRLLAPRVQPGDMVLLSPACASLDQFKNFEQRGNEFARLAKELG
Method: as §1, §2
The published kinase inhibitor set compounds were evaluated for inhibition of MurC, D and F ligases from E. coli using the Malachite green assay, which detects orthophosphate generated during enzymatic reactions. To avoid non-specific inhibition due to aggregate formation, all of the compounds were tested in the presence of detergent (0.005% Triton-X114). The data are presented as the residual activities of these Mur ligases in the presence of 100 µM of each test compound (Supporting Information Table S1).

[1] = Table S1, PKIS screening, read-out: RA [%] at 100 µM MurC
[2] = read-out: RA [%] at 100 µM MurC, Table S1, PKIS screening

E. coli MurC, sequence (P17952 whole entry): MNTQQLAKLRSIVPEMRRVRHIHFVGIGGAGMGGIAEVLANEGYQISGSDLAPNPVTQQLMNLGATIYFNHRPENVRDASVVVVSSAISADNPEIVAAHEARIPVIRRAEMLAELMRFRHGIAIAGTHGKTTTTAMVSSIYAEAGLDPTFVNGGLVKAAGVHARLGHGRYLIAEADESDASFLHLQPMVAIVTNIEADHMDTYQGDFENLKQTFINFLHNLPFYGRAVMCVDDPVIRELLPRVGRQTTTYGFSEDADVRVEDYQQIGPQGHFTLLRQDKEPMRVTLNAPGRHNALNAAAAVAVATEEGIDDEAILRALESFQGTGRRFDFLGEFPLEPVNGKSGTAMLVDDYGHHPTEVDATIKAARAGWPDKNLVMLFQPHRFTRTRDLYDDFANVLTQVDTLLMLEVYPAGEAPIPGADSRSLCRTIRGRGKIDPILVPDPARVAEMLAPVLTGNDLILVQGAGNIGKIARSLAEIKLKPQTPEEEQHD

SMILES	remaining activity at 100 µM (E. coli MurC; [1])	remaining activity at 100 µM (E. coli MurF)	remaining activity at 100 µM (E. coli MurD)	remaining activity at 100 µM (E. coli MurC; [2])	IC50 (E. coli MurD; printed in the RA cell of Table S1, read-out: IC50 MurD)
NC(=O)c1cc(-c2ccc(F)cc2)cc(-c2ccncc2)c1N [GSK620503A]	94%	80%	71%	–	–
NC(=O)c1cc(-c2ccncc2)cc(-c2ccccc2)c1N [GSK625137A]	65%	84%	95%	–	–
CNC(=O)c1cc(-c2ccc(F)cc2)cc(-c2ccc(S(=O)(=O)N3CCCC3)cc2)c1N [GSK635416A]	71%	88%	43%	–	–
COc1c(C(N)=O)cc(-c2ccc(Cl)cc2)cc1-c1ccc(S(N)(=O)=O)cc1 [GSK711701A]	100%	93%	99%	–	–
CCn1cc(-c2ccnc3[nH]ccc23)c(-c2cccc(NC(=O)Nc3ccc(OCc4ccccc4)cc3)c2)n1 [GSK718429A]	94%	99%	83%	–	–
CCn1c(-c2nonc2N)nc2c(C#CC(C)(C)O)nc(OC[C@@H](N)c3ccccc3)cc21 [GSK938890A]	76%	92%	80%	–	–
CCn1c(-c2nonc2N)nc2c(C#CC(C)(C)O)nc(OCCNC)cc21 [GSK949675A]	73%	74%	85%	–	–
NS(=O)(=O)c1cccc(-c2cc3ccncc3cc2OCc2ccccc2)c1 [GSK980961A]	80%	66%	86%	–	–
NC(=O)c1sc(-n2cnc3ccccc32)cc1OCc1ccccc1Br [GSK1023156A]	55%	84%	82%	–	–
COC(=O)c1sc(-n2cnc3cc(OC)c(OC)cc32)cc1OCc1ccccc1C(F)(F)F [GSK1030058A]	32%	55%	78%	–	–
COc1cc2ncn(-c3cc(OCc4ccccc4C(F)(F)F)c(C(=O)N(C)C)s3)c2cc1OC [GSK1030062A]	68%	63%	76%	–	–
COc1cc(N2CCN(C(C)C)CC2)ccc1Nc1nc(Nc2ccc(F)cc2C(N)=O)c2cc[nH]c2n1 [GSK1220512A]	–	54%	48%	2%	–
CCCN1CCC(c2ccc(Nc3nc(Nc4cc(F)ccc4C(N)=O)c4cc[nH]c4n3)c(OC)c2)CC1 [GSK1326255A]	0%	4%	9%	–	39 µM
COc1cc(N2CCN(C(C)C)CC2)ccc1Nc1nc(Nc2ccc(F)cc2C(=O)NC[C@@H](O)CO)c2cc[nH]c2n1 [GSK1392956A]	65%	90%	76%	–	–
CCCN1CCC(Oc2cc(Nc3nc(Nc4cccc(F)c4C(N)=O)c4cc[nH]c4n3)c(OC)cc2Cl)CC1 [GSK1713088A]	59%	85%	54%	–	–
COc1cc2c(cc1Nc1nc(Nc3cccc(F)c3C(N)=O)c3cc[nH]c3n1)N(C(=O)CN1CCN(C(C)C)CC1)CC2 [GSK1751853A]	55%	89%	74%	–	–
COc1cc(N2CCN(C(C)C)CC2)ccc1Nc1nc(Nc2cccc(F)c2C(=O)O)c2cc[nH]c2n1 [GSK1819799A]	0%	39%	37%	–	–
COc1cc2c(cc1Nc1nc(N3CCc4ccccc43)c3cc[nH]c3n1)N(C(=O)CN(C)C)CC2 [GSK2186269A]	23%	26%	100%	–	–
COc1cc(C)c(N(C)C(=O)CN(C)C)cc1Nc1nc(Nc2cccc(F)c2C(N)=O)c2cc[nH]c2n1 [GSK2219385A]	–	93%	93%	73%	–
CNC(=O)c1ncccc1Nc1nc(Nc2cc3c(cc2OC)CCCN3C(=O)CN(C)C)nc2[nH]ccc12 [GSK2220400A]	–	81%	84%	69%	–
NS(=O)(=O)c1cccc(N/C=C2\C(=O)Nc3ccccc32)c1 [GW275616X]	84%	83%	88%	–	–
Cc1ccc2c(c1)C(=NNc1ccc(S(N)(=O)=O)cc1)C(=O)N2 [GW275944X]	92%	83%	87%	–	–

SMILES	remaining activity at 100 µM (E. coli MurC; [1])	remaining activity at 100 µM (E. coli MurF)	remaining activity at 100 µM (E. coli MurD)	remaining activity at 100 µM (E. coli MurC; [2])	IC50 (E. coli MurD; printed in the RA cell of Table S1, read-out: IC50 MurD)
NS(=O)(=O)c1ccc(N/N=C2\C(=O)Nc3ccc(-c4cnco4)cc32)cc1 [GW276655X]	84%	22%	73%	–	–
CS(=O)(=O)Nc1ccc(N/C=C2\C(=O)Nc3ccccc32)cc1 [GW278681X]	71%	77%	89%	–	–
Cc1cc(Cl)cc2c1NC(=O)C2=NNc1ccc(S(N)(=O)=O)cc1 [GW279320X]	76%	0%	78%	–	–
NS(=O)(=O)c1ccc(N/N=C2\C(=O)Nc3ccc(Cl)cc32)cc1 [GW280670X]	100%	76%	99%	–	–
COc1cc2ncnc(Nc3ccc4c(cnn4Cc4ccccc4)c3)c2cc1OC [GW282449A]	53%	56%	62%	–	–
CN(C)c1cc2c(Nc3ccc4c(cnn4Cc4ccccc4)c3)ncnc2cn1 [GW282974X]	77%	55%	70%	–	–
c1ccc(COc2ccc(Nc3ncnc4ccc(-c5ccco5)cc34)cc2)cc1 [GW284372X]	56%	100%	80%	–	–
O=C1Nc2ccccc2/C1=C/Nc1ccc2[nH]c(=O)[nH]c2c1 [GW284408X]	105%	86%	86%	–	–
NS(=O)(=O)c1ccc(NN=C2C(=O)Nc3ccc(C(=O)NCCCn4ccnc4)cc32)cc1 [GW290597X]	63%	100%	92%	–	–
COc1ccc2[nH]c3c4[nH]c5ccc(OC)cc5c4c4c(c3c2c1)C(=O)NC4=O [GW296115X]	100%	100%	87%	–	–
NS(=O)(=O)c1ccc(N/C=C2\C(=O)Nc3ccc4ncsc4c32)cc1 [GW297361X]	107%	86%	76%	–	–
CC(C)c1ccc2c(c1)NC(=O)C2=NNc1ccc(S(N)(=O)=O)cc1 [GW300653X]	100%	75%	85%	–	–
NS(=O)(=O)c1ccc(NN=C2C(=O)Nc3ccc(C(=O)NCc4ccncc4)cc32)cc1 [GW300657X]	75%	85%	96%	–	–
NS(=O)(=O)c1ccc(N/N=C2\C(=O)Nc3ccc(C(=O)NCCc4c[nH]cn4)cc32)cc1 [GW300660X]	58%	96%	90%	–	–
O=C1Nc2ccccc2/C1=C/Nc1ccc(-n2cncn2)cc1 [GW301789X]	64%	75%	91%	–	–
CN(C)c1cc2c(Nc3ccc4nc(Cc5ccccc5)[nH]c4c3)ncnc2cn1 [GW301888X]	83%	75%	80%	–	–
O=C1Nc2ccc(I)cc2C1=Cc1cc(Br)c(O)c(Br)c1 [GW305074X]	100%	78%	92%	–	–
NS(=O)(=O)c1ccc(N/N=C2\C(=O)Nc3ccc4ncccc4c32)cc1 [GW305178X]	52%	56%	57%	–	–
C/C(Nc1ccc(S(N)(=O)=O)cc1)=C1/C(=O)Nc2ccccc21 [GW335962X]	72%	88%	76%	–	–
NS(=O)(=O)c1ccc(NN=C2C(=O)Nc3cccc(CCc4ccncc4)c32)cc1 [GW352430A]	64%	37%	90%	–	–
COC(=O)c1ccc2c(c1)C(=Cc1cc(Br)c(O)c(Br)c1)C(=O)N2 [GW405841X]	93%	75%	82%	–	–
